# Experiments:
# [1] = tested on: fecal suspension from the selected donor; experiment: Intestinal batch fermentation, SCFA production (first set); assay type: cell-based, human; settings: 5× dose; after 48 h fermentation; vs corresponding control
# Description: In a first set of in vitro experiments at the start of intestinal batch fermentation incubation, all test ingredients were added from stock solutions to the modified nutritional medium, containing (g/l): 2.5 K2HPO4, 10.9 KH2PO4, 2 NaHCO3, 2 yeast extract, 2 peptone, 1 mucin, 0.5 cysteine, 2 Tween 80, 2 glucose, 2 starch, 2 cellobiose, 0.1 NaCl, 0.01 MgSO4·7H2O, 0.01 CaCl2·6H2O, 0.05 hemin, 0.5 bile salts.
# The other compounds were prepared in ethanol: • Vitamin K1 (VK1), • MEG-3 0080 EE Oil (MEG-3 0080 EE), • MEG-3 4535 EE Oil (MEG-3 4535 EE), • MEG-3 8000 EE Oil (MEG-3 8000 EE).
# (§1) Since ethanol is known to have antimicrobial effects, two blanks for each type of stock solution were included. As a source of the microbial community, a freshly prepared fecal suspension from the selected donor was added to the reactors. […] All tests, except the blanks, were performed in single repetition, resulting in 40 independent incubations, as specified in Table 1. Incubation conditions of the pre-screening experiment and the final experiment were 48 h at 37° C., under shaking (90 rpm) and anaerobic conditions. DNA were extracted from effluent samples collected from each fermentation flask before (0 h fermentation) and after fermentation (24 h fermentation) and use for microbiome composition analysis by Shotgun sequencing. Effluent samples were collected from each fermentation flask before (0 h fermentation) and after fermentation (48 h fermentation), sterilized by filtering through 0.22 μm filters and used for short chain fatty acids (SCFA), quantification of immunological biomarkers and in vitro analysis in cell culture systems.
# Short chain fatty acids (SCFA) are an assessment of the microbial carbohydrate metabolism (acetate, propionate and butyrate) or protein metabolism (branched SCFA) and can be compared to typical fermentation patterns for normal GI microbiota. Samples for SCFA analysis were analyzed after 0, 6, 24 and 48 h of incubation for both set of in vitro experiments, above.
# SCFA were extracted from the samples with diethyl ether, after the addition of 2-methyl hexanoic acid as an internal standard. Extracts were analysed using a GC-2014 gas chromatograph (Shimadzu's-Hertogenbosch, the Nether-lands), equipped with a capillary fatty acid-free EC-1000Econo-Cap column (dimensions: […]×0.53 mm, film thickness […]; Alltech, Laarne, Belgium), a flame ionization detector and a split injector. The injection volume was […] and the temperature profile was set from 110 to 160° C., with a temperature increase of 6° C. min-1. The carrier gas was nitrogen and the temperature of the injector and detector were […] and 220° C., respectively. The production of unbranched and branched SCFA was calculated by summing the molar concentrations of acetate, propionate, butyrate, valerate and caproate, and summing isobutyrate, isovalerate and isocaproate molar concentrations, respectively. The total SCFA production was defined as the sum of unbranched and branched SCFA.
# [2] = tested on: Co-cultures of Caco-2 and HT29-MTX-E12 cells; experiment: Barrier integrity (TEER), healthy gut model; assay type: cell-based; settings: 48 h minus 0 h fermentation samples, vs corresponding control
# Description: (§5) Co-cultures of Caco-2 and HT29-MTX-E12 cells were used to assess the protective effect of the supernatants before (0 h) and after fermentation (48 h) for both sets of in vitro experiments above.
# (§6) CaCo-2 ECACC 86010202 and HT29-MTX-E12 ECACC 12040401 cells (both from European Collection of Cell Cultures, Salisbury, UK) were both cultured at 37° C., in atmosphere of 5% CO2 in DMEM medium supplemented with 4.5 g/L D-Glucose, 4 mM L-Glutamine, 1 mM Sodium Pyruvate, 1% MEM Non-Essential Amino Acids, 50 μg/mL Gentamicin (Life Technologies Europe B.V., Zug, Switzerland) and 10% heat-inactivated FBS (Sigma-Aldrich, Buchs, Switzerland). Sub-confluent cells were trypsinized using 0.25% Trypsin/EDTA (Life Technologies Europe B.V., Zug, Switzerland) and passaged at a ratio of 1:5-1:10 twice a week. Cells between passages 55 and 85 were used for this study.
# (§7) Cells were seeded at a density of 20000 cells/well in a 7:3 ratio (Caco-2:HT29-MTX-E12) in Corning HTS Transwell-24 system PET membranes, 0.4 μM pore size, cell growth area 0.33 cm2/well (Corning BV, Amsterdam, Netherlands) and cultured as described above. Media was changed every second to third day.
# For both sets of in vitro experiments, after cells being 13 days in culture, initial transepithelial electrical resistance (TEER) readings were obtained using an EVOM2 Voltohmmeter (EVOM, World Precision Instruments, Berlin) equipped with STX100 Electrodes. TEER values correlate with the tightness of the confluent monolayer (Srinivasan et al. 2015).
# The background TEER (insert) was subtracted from total TEER (cell monolayer plus insert) to yield the monolayer resistance and then normalized to surface area by multiplying with the area of the insert (Srinivasan et al. 2015). The integrity of the monolayer was determined at basal level by measuring TEER. A TEER of 300 Ωcm2 was regarded as a tight monolayer (see results section). Afterwards, the cells were treated with sterile filtered fermentation supernatants or fermentation medium as a control (diluted 1:20 in growth media). After 24 h incubation the resistance across each cell monolayer was measured again and the percentage change in TEER compared to initial TEER for each insert was calculated to represent a healthy gut model. All TEER measurements were done by placing the plates containing the inserts on a 37° C. warming plate and were performed in the same duration.
# [3] = tested on: Co-cultures of Caco-2 and HT29-MTX-E12 cells; experiment: Barrier integrity, leaky gut model, apical stressor Rhamnolipids; assay type: cell-based; settings: vs corresponding control; for Lucifer yellow, apical induction of leaky gut cellular model: 48 h fermentation samples; for TEER, apical induction of leaky gut cellular model: 48 h minus 0 h fermentation samples
# Description: Since ethanol is known to have antimicrobial effects, two blanks for each type of stock solution were included. As a source of the microbial community, a freshly prepared fecal suspension from the selected donor was added to the reactors. […] All tests, except the blanks, were performed in single repetition, resulting in 40 independent incubations, as specified in Table 1. Incubation conditions of the pre-screening experiment and the final experiment were 48 h at 37° C., under shaking (90 rpm) and anaerobic conditions. […] Effluent samples were collected from each fermentation flask before (0 h fermentation) and after fermentation (48 h fermentation), sterilized by filtering through 0.22 μm filters and used for short chain fatty acids (SCFA), quantification of immunological biomarkers and in vitro analysis in cell culture systems.
# as §5, §6, §7
# For both sets of in vitro experiments, the integrity of cell monolayers after the stressor test was evaluated by both TEER values and by measuring the transport of Lucifer yellow from apical to basolateral compartments (Leaky gut model). A prewarmed HBSS transport buffer composed of Hank's Balanced Salt Solution pH 7.4 with Ca2+ and Mg2+, containing 5.5 mM D-(+)-glucose, Sodium Bicarbonate, and supplemented with 4 mM L-glutamine, 20 mM HEPES (Life Technologies Europe B.V., Zug, Switzerland) was used for all permeability experiments. The inserts were rinsed twice with HBSS using a reservoir tray, 100 μl HBSS were then added to the apical site of the inserts and subsequently moved to new wells with fresh HBSS and allowed to equilibrate at 37° C. for 60 min in the incubator followed by TEER measurement to obtain baseline resistance readings.
# Lucifer Yellow CH dilithium salt (Sigma-Aldrich, Buchs, Switzerland) was dissolved in HBSS at a final concentration of 100 μg/ml. Basolateral stressor EtOH (Merck, KgaA, Darmstadt, Germany) was diluted to 5% in HBSS. Apical Stressor Rhamnolipids R90 (AGAE Technologies, Corvallis, USA) was dissolved in HBSS containing Lucifer Yellow at a final concentration of 350 μg/ml. All solutions were prepared freshly each time.
# The HBSS transport buffer from the basolateral chamber was aspirated first, then the HBSS from the apical chamber and replaced with Lucifer yellow solution. For the apical stressor test, Lucifer yellow solution containing 350 μg/ml Rhamnolipids or Lucifer yellow solution without stressor for the control wells was loaded into the apical compartment, blank HBSS was subsequently added to the basolateral chamber.
# [4] = tested on: fecal microbial community; experiment: Microbiome composition by shotgun sequencing: alpha diversity (first set); assay type: cell-based, human; settings: after 24 h fermentation, vs corresponding control
# Description: as §1
# (§2) For the first set of in vitro experiments, total DNA was extracted from all samples collected throughout the study using the QIAamp DNA stool minikit (Qiagen, Crawley, United Kingdom) according to the manufacturer's instructions, apart from addition of a bead-beating step and increasing the lysis temperature to 95° C. as described previously (McCormack et al., 2018).
# (§3) After DNA isolation, DNA was quantified using the Qubit High Sensitivity DNA assay (Thermo Fisher). Whole metagenome libraries were then prepared using the Illumina Nextera XT kit (Illumina) in accordance with the manufacturer's instructions, with the following modifications: Firstly, tagmentation time was increased to 7 min and secondly, following incorporation of indices and Ampure purification of the products, the samples were each individually sized by running on an Agilent High Sensitivity Chip (Agilent) and quantified using the Qubit High Sensitivity DNA assay (Thermo Fisher) in accordance with Teagasc Sequencing Platform SOPs. The samples were then pooled equimolarly and sequenced on the Illumina NextSeq 500 with a NextSeq 500/550 v2 high-output reagent kit (300 cycles). All sequencing was done in the Teagasc sequencing facility in accordance with standard Illumina sequencing protocols.
# (§4) Delivered raw FASTQ sequence files were quality checked as follows: poor quality and duplicate read removal, as well as trimming was implemented using a combination of SAM and Picard tools. Taxonomy was assigned to the reads using the Kraken software and functional analysis was performed with Super focus.
# [5] = tested on: Bifidobacterium; experiment: Microbiome composition by shotgun sequencing: Bifidobacterium (first set); assay type: cell-based, human; settings: after 24 h fermentation, vs corresponding control
# Description: as §1, §2, §3, §4
# [6] = tested on: genes involved in Acetyl-CoA fermentation to Butyrate pathway; experiment: Shotgun sequencing functional analysis: butyrate pathway genes (first set); assay type: cell-based, human; settings: after 24 h fermentation, vs corresponding control
# Description: as §1, §2, §3, §4
# [7] = tested on: HT29 cells; experiment: HT29 cell culture, quantification of immunological biomarkers; assay type: cell-based; settings: 5× dose; effluent from 24 h fermentation; vs corresponding control
# Description: as §1, with “([…]), […]” for “(0 h fermentation) and after fermentation (48 h fermentation), sterilized by filtering through 0.22 μm filters and used for short chain fatty acids (SCFA), quantification of immunological biomarkers and in vitro analysis in”
# For both sets of in vitro experiments, HT29 cells were obtained from American Type Culture Collection (Manassas, VA). Cells were cultured in DMEM supplemented with 10% fetal bovine serum (FBS), 50 units/ml penicillin, 50 μg/ml streptomycin, L-glutamine, and nonessential amino acids (Life Technologies Europe B.V., Zug, Switzerland). Cells were seeded into 12-well plates at 8×10^5 cells per well and used after 2 days of preculture. They were starved in DMEM containing 0.25% FBS for 18 h before treatment. Cells were treated for 24 hours with TNF-α at 100 ng/mL or fermentation supernatants which were sterile filtered and diluted 1:20 in DMEM containing 0.25% FBS. All treatments were done in triplicate. Consequently, cytokines, chemokines and interleukins were quantified in HT29 supernatants using the Luminex Technology (LiquiChip Workstation IS 200, Qiagen, Hilden, Germany) with Bio-Plex Pro Human Cytokine Panel kits (Bio-Rad, Hercules, CA) or with Luminex Screening Assay kits (R&D Systems, Inc., Minneapolis, MN), following the manufacturer's instructions. The data were acquired with the Luminex IS 2.3 software and evaluated with the LiquiChip Analyser software (Qiagen, Hilden, Germany).
# [8] = tested on: fecal suspension from the selected donor; experiment: Gas production in closed colon incubations (first set); assay type: cell-based, human; settings: after 48 h fermentation, vs corresponding control
# Description: The colon incubations were performed in closed incubation systems. This allowed us to evaluate the accumulation of gasses in the headspace, which can be measured with a pressure meter. Gas production is a measure of microbial activity, and thus of the speed of fermentation of the potentially prebiotic substrates. It can be used as an indication for bloating and digestive wellbeing upon prebiotic consumption.
# as §1
# For both sets of in vitro experiments, colon incubations were performed in closed incubation systems as described above. This allowed to evaluate the accumulation of gasses in the headspace, which can be measured with a pressure meter. Gas production is a measure of microbial activity, and thus of the speed of fermentation of the potentially prebiotic substrates
SMILES,butyrate production [1],"TEER, healthy gut cellular model ([2]; 0.2× dose)","Lucifer yellow, apical induction of leaky gut cellular model ([3]; 0.2× dose)","TEER, apical induction of leaky gut cellular model ([3]; 0.2× dose)",microbiome alpha diversity (Shannon diversity index) ([4]; 0.2× dose),microbiome alpha diversity (Shannon diversity index) ([4]; 1× dose),Bifidobacterium relative abundance ([5]; 0.2× dose),Bifidobacterium relative abundance ([5]; 1× dose),relative abundance of genes involved in Acetyl-CoA fermentation to Butyrate pathway ([6]; 0.2× dose),relative abundance of genes involved in Acetyl-CoA fermentation to Butyrate pathway ([6]; 1× dose),IL-8 production by HT29 cells [7],"TEER, healthy gut cellular model ([2]; 1× dose)","Lucifer yellow, apical induction of leaky gut cellular model ([3]; 1× dose)","TEER, apical induction of leaky gut cellular model ([3]; 1× dose)",microbiome alpha diversity (Shannon diversity index) ([4]; 5× dose),relative abundance of genes involved in Acetyl-CoA fermentation to Butyrate pathway ([6]; 5× dose),gas production ([8]; 1× dose),gas production ([8]; 5× dose)
"Cc1cc2nc3c(=O)[nH]c(=O)nc-3n(C[C@H](O)[C@H](O)[C@H](O)COP(=O)(O)O)c2cc1C [Vitamin B2-5-phosphate, Riboflavin-5-phosphate]",increase butyrate production,increase TEER,decrease Lucifer yellow,increase TEER,increase microbiome diversity,increase microbiome diversity,increase Bifidobacterium relative abundance,increase Bifidobacterium relative abundance,increase relative abundance,increase relative abundance,increase IL-8 production,,,,,,,
"O=C1O[C@H]([C@@H](O)CO)C(O)=C1O [Vitamin C, Ascorbic acid]",,,decrease Lucifer yellow,increase TEER,,,,increase Bifidobacterium relative abundance,,,,increase TEER,decrease Lucifer yellow,increase TEER,increase microbiome diversity,increase relative abundance,reduced gas production,reduced gas production

# Source: patent US12508280B2, “Formulations for improving gut health” (DSM IP ASSETS B.V., priority 2018, dated 2025)
